Measurements from patent US20190351012A1, “TARGETING OF INTERFERON-STIMULATED GENE EXPRESSION TO TREAT INTERFERONOPATHIES” (New York University, priority 2018, published 2019).

Test system: p21^Cip1/wAF1 expression in HeLa cells
Assay: p21 Cip1/WAF1 expression in HeLa cells, real-time RT-PCR (control for HDAC inhibition)
Format: cell-based, human
Settings: IFN-α 6 h, FIG. 1B
Description: FIG. 1. Class I HDAC mediates ISG expression. (A, B) HeLa cells were treated with IFN-α for 6 h in the absence or presence of increasing concentrations of Romidepsin or TSA, as indicated. RNA was quantified by real-time RT-PCR for ISG54 and p21^wAF1/Cip1 expression, normalized to GAPDH, and represented as fold induction over untreated cells. (C) HeLa cells were treated with IFN-α for 6 h in the absence or presence of increasing concentrations of romidepsin, RGFP966, or RGFP233, as indicated. RNA was quantified by real-time RT-PCR for IRF9 expression, normalized to GAPDH and represented as fold induction over untreated cells. HEK293 cells were transfected with siRNA against HDAC1, HDAC2, or E2F4 separately (D) or with a combination of HDAC1 and HDAC2 targeting oligonucleotides (E) and cells were stimulated with IFN-α for 6 h (α) in the presence (αT) or absence of TSA, as indicated. Whole cell extracts were analyzed for expression of the indicated proteins by western blotting (left panels). ISG54 expression was quantified by real-time RT-PCR, and represented as fold induction over untreated cells (right panels). (F) HEK293T cells were transfected with pcDNA3 (Ctl), HDAC1, or HDAC2 expression constructs, and ISG54 expression was quantified after stimulation with IFN-α for 10 h. […] Nuclear extracts were analyzed for expression of Sin3B by western blotting (middle panels). […]

In the case of `CC(/C=C/C(=O)NO)=C\[C@@H](C)C(=O)c1ccc(N(C)C)cc1` [TSA, Trichostatin A], the “p21 Cip1/WAF1 expression” value is reported as “led to p21^Cip1/wAF1 expression”.
